# Like-named read-outs stand apart in the source and are kept apart here.
# Columns and labels:
# [1] = system: HeLa, human cervical epithelioid carcinoma; assay: Cytotoxicity assay (MTT), HeLa; settings: read-out: Cytotoxicities (IC50), HeLa, 72 h, MTT
# [2] = Cytotoxicity assay (MTT), HepG2; settings: human, HepG2 cells
# [3] = system: glutathione peroxidase (GPx); assay: Cellular glutathione peroxidase activity of treated HeLa cells; assay type: cell-based, human; settings: one-hour treatment
# Protocol: (§1) Cells were seeded at 2×10^5/well in 6-well plates and incubated for 24 hours. The metal thiourea compounds (10^−9 to 10^−4 M) were serially diluted and added to the cells (final DMSO concentrations≦1%). After an one-hour incubation, cells were washed thrice with phosphate buffered saline and 100 μL ice-cold lysis buffer (50 mM phosphate buffer, pH 7.4, 1 mM EDTA, 0.1% Triton-X 100) were added to the cell layer. Cell lysis was carried on ice for 5 minutes and the cell lysates were collected and stored at −80° C. or assayed immediately.
# Cell lysates (10 μg proteins) were added to a mixture containing 100 mM phosphate, pH 7.4, 2 mM GSH, 1 U glutathione reductase, and 0.2 mM NADPH. Reaction was initiated by adding tert-butyl hydroperoxide (300 μM) and the NADPH oxidation was measured as decreases in O.D.340 nm in 10 min. GPx activities (ΔO.D.340 nm/min) were determined by subtracting the spontaneous NADPH oxidation in the absence of tert-butyl hydroperoxide.
# [4] = target: T1, Glutathione reductase (GR) (Homo sapiens, UniProt P00390); assay: Cellular glutathione reductase activity of treated HeLa cells; assay type: cell-based; settings: one-hour treatment, up to 100 μM
# T1 construct: endogenous in cells; host or cells: HeLa
# T1 sequence (P00390 44-522): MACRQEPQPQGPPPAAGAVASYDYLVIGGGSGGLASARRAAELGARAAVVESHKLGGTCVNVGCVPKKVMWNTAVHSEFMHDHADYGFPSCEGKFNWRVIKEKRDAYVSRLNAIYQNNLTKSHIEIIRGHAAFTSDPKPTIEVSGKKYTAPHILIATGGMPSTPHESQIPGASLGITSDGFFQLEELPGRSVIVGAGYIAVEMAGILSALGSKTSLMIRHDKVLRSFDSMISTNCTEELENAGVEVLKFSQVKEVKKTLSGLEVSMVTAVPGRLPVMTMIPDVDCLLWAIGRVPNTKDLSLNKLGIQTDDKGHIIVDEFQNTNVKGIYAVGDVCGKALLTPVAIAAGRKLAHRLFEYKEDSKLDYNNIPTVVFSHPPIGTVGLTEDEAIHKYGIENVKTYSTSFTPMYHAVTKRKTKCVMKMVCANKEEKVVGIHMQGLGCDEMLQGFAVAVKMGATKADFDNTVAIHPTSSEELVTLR
# Protocol: as §1
# Cell lysates (10 μg proteins) were added to a mixture containing 100 mM phosphate, pH 7.4, 1 mM EDTA, 1 mM GSSG and 0.2 mM NADPH. Reaction was initiated by adding DTNB (3 mM final) and the increases in O.D.412 nm were measured for 10 min. GR activities were determined by subtracting the increases in O.D.412 nm in the absence of GSSG.
# [5] = system: panel of cancer cell lines; settings: Homo sapiens, read-out: half maximal inhibitory concentrations (IC50), panel of cancer cell lines
# [6] = Cytotoxicity assay (MTT), HeLa; settings: human, HeLa cells
# [7] = Cytotoxicity assay (MTT), SUNE1; settings: human, SUNE1 cells
# [8] = Cytotoxicity assay (MTT), NCI-H460; settings: human, NCI-H460 cells
# [9] = target: T2, thioredoxin reductase (TrxR) (Homo sapiens, UniProt Q16881); assay: Cellular thioredoxin reductase activity of treated HeLa cells; assay type: cell-based; settings: one-hour treatment
# T2 sequence (Q16881 1-649): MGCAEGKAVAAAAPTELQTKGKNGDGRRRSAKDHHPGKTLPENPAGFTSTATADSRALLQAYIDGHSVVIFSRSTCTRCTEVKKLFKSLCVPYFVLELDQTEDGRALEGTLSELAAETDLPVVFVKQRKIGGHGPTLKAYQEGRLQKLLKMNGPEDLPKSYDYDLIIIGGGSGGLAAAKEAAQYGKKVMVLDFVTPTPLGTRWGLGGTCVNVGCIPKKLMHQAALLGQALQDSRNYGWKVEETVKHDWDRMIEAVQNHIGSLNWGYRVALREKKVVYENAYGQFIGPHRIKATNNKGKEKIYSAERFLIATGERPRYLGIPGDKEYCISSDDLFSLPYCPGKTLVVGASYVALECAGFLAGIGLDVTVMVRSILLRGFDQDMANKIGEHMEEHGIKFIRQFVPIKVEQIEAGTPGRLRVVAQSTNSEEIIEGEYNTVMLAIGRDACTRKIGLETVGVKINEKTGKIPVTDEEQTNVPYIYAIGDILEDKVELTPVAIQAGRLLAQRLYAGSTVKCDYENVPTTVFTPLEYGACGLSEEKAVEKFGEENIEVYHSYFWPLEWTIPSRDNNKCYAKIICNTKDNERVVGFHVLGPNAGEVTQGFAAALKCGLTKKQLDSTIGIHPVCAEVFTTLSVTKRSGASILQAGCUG
# Protocol: as §1, with “immediately. Cell lysates (10 μg proteins) were added to a mixture (100 μL) containing 100 mM phosphate, pH 7.4, 1 mM EDTA and 0.2 mM NADPH.” for “immediately.”
# [10] = system: HepG2, human hepatocellular carcinoma
# [11] = system: NCI-H460 = human lung carcinoma
# [12] = system: SUNE1, human nasopharyngeal carcinoma
# [13] = system: HeLa, human cervical epithelioid carcinoma
# [14] = system: NCI-H460 non-small cell lung cancer cells; assay type: in vivo, mice
# Protocol: The in vivo experiment was conducted in Pearl Materia Medica Development (Shenzhen) Limited and performed with approval from the Committee on the Use of Live Animals for Teaching and Research. SPF grade four-week-old female BALB/c AnN-nu mice (nude mice, 16-18 g) were purchased. Tumor cells (5×10^6) resuspended in RPMI medium were implanted by subcutaneous injection on the right flank of the mice. When tumors were approximately 50 mm^3 in size, animals were randomly separated into 3 groups to receive treatment of twice-a-week intraperitoneal injection of 10% PET vehicle control (where 10% PET=6% polyethylene glycol 400, 3% ethanol, 1% Tween 80 and 90% PBS), complex 1 (100 mg/kg) or cyclophosphamide (30 mg/kg) for 8 times. After 28 days, the mice were sacrificed and the tumors were isolated and weighted.
smiles,measurement,setting,value
"O=[N+]([O-])[O-].[Ag+] [AgNO3, reference compound]",IC50,[1],32.1 ± 1.2 µM
"COc1ccc(N2CCN(c3ccc(OC)cc3)C2=S)cc1 [TU, 1,3-bis(4-methoxyphenyl)imidazolidine-2-thione, reference compound]",IC50 at 72 h,[2],> 100 µM
same,"effect on cellular GPx activity, added up to 100 μM",[3],not affected
same,"effect on cellular GR activity, added up to 100 μM",[4],not affected
same,IC50,[5],> 100 µM
same,IC50 at 72 h,[6],> 100 µM
same,IC50 at 72 h,[7],> 100 µM
same,IC50 at 72 h,[8],> 100 µM
same,"effect on cellular TrxR activity, added up to 100 μM",[9],not affected
"F[P-](F)(F)(F)(F)F.NC(N)=S.NC(N)=S.[Cu+] [complex 3, [Cu(TU)2]PF6]",IC50,[10],13 ± 0.9 µM
same,IC50,[11],11.2 ± 0.9 µM
same,IC50,[12],8.5 ± 1 µM
same,"effect on cellular GPx activity, added up to 100 μM",[3],not affected
same,"effect on cellular GR activity, added up to 100 μM",[4],not affected
same,IC50,[13],12.7 ± 0.9 µM
same,"effect on cellular TrxR activity, added up to 100 μM",[9],not affected
O=P1(N(CCCl)CCCl)NCCCO1 (stereo not drawn) [cyclophosphamide],"Tumor volume, Day 13","[14]; Day 13, 30 mg/kg i.p. twice a week",325.041 ± 170.053 mm^3
same,"Tumor volume, Day 17","[14]; Day 17, 30 mg/kg i.p. twice a week",639.465 ± 422.362 mm^3
same,"Tumor volume, Day 21","[14]; Day 21, 30 mg/kg i.p. twice a week",1032.258 ± 594.026 mm^3
same,"Tumor volume, Day 25","[14]; Day 25, 30 mg/kg i.p. twice a week",1474.100 ± 900.357 mm^3
same,"Tumor volume, Day 29","[14]; Day 29, 30 mg/kg i.p. twice a week",1438.735 ± 845.815 mm^3

# Source: patent US8722897B2, “Metal complexes of thiourea and derivatives as metal delivering anti-cancer and anti-inflammatory agents” (priority 2010, dated 2014)
